From ChEMBL document CHEMBL5518169, “Discovery of a 1,6-naphthyridin-4-one-based AXL inhibitor with improved pharmacokinetics and enhanced in vivo antitumor efficacy” (Eur J Med Chem, 2024)
Active and inactive are the calls of the source. No cut-off for these calls is given here.

Assays:
[1] = Antitumor activity against mouse BaF3/TEL-AXL cells xenografted in mouse assessed as tumor growth inhibition at 50 mg/kg, po administered for 7 days; format: functional; details: 168 h, time 7 day, read-out: TGI
[2] = Toxicity in mouse xenografted with mouse BaF3/TEL-AXL cells assessed as body weight loss at 50 mg/kg, po administered for 7 days; format: organism-based; details: in vivo, 168 h, time 7 day
[3] = Cmax in Sprague-Dawley rat at 3 mg/kg, po measured upto 24 hrs by LC-MS/MS analysis; format: ADME, organism-based; details: in vivo
[4] = Tmax in Sprague-Dawley rat at 3 mg/kg, po measured upto 24 hrs by LC-MS/MS analysis; format: ADME, organism-based; details: in vivo
[5] = Antitumor activity against mouse BaF3/TEL-AXL cells xenografted in mouse assessed as tumor growth inhibition at 100 mg/kg, po administered for 7 days; format: functional; details: 168 h, time 7 day, read-out: TGI
[6] = Antitumor activity against mouse BaF3/TEL-AXL cells xenografted in mouse assessed as tumor growth inhibition at 25 mg/kg, po administered for 7 days; format: functional; details: 168 h, time 7 day, read-out: TGI
[7] = target: RAC-alpha serine/threonine-protein kinase (Mus musculus) (UniProt P31750); experiment: Inhibition of AKT phosphorylation in mouse BaF3/TEL-AXL cells incubated for 2 hrs by Western blot analysis; format: cell-based; details: dose 2-500 nM
[8] = target: T1, Tyrosine-protein kinase receptor UFO (Mus musculus) (UniProt Q00993); experiment: Inhibition of AXL phosphorylation in mouse BaF3/TEL-AXL cells incubated for 2 hrs by Western blot analysis; format: cell-based; details: dose 2-500 nM
T1 sequence (whole entry): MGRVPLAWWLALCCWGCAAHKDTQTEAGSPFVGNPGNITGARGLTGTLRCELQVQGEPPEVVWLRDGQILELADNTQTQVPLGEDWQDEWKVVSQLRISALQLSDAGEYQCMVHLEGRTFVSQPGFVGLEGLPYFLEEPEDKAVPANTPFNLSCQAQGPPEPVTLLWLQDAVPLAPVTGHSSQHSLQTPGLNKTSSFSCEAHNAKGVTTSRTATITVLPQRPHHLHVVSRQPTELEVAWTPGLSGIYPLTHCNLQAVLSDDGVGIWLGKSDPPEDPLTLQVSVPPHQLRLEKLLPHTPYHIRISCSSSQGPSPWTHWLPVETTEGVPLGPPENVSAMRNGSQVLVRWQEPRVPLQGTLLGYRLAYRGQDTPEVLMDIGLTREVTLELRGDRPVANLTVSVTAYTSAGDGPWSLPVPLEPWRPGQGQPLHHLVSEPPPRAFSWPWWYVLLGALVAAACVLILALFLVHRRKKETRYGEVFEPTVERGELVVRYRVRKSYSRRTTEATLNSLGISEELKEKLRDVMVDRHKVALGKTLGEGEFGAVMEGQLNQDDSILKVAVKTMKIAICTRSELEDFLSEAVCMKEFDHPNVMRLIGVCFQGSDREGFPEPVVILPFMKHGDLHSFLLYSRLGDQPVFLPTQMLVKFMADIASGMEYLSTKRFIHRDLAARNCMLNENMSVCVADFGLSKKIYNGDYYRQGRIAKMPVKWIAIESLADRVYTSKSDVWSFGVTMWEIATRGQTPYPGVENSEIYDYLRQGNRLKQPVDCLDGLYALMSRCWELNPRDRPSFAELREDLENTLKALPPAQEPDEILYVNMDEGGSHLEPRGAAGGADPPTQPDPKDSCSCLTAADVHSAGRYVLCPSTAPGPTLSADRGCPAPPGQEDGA

BaF3/TEL-AXL = experiment: Antitumor activity against mouse BaF3/TEL-AXL cells xenografted in mouse assessed as tumor regression at 50 to 100 mg/kg, po administered for 7 days; format: functional, organism-based; details: dose 50-100 mg/kg, time 7.0 day
[9] = Metabolic stability in human liver microsomes assessed as parent compound remaining preincubated with compound for 10 mins followed by NADPH addition and measured after 60 mins by LC-MS/MS analysis; format: ADME, Microsome; details: time 70 min, read-out: Stability
[10] = Toxicity in mouse xenografted with mouse BaF3/TEL-AXL cells assessed as body weight loss at 25 to 100 mg/kg, po administered for 7 days; format: organism-based; details: in vivo, 168 h, dose 25-100 mg/kg, time 7 day
[11] = MRT (0 to infinity) in Sprague-Dawley rat at 3 mg/kg, po measured upto 24 hrs by LC-MS/MS analysis; format: ADME, organism-based; details: in vivo
[12] = Metabolic stability in human liver microsomes assessed as half life preincubated with compound for 10 mins followed by NADPH addition and measured after 60 mins by LC-MS/MS analysis; format: ADME, Microsome; details: time 70 min
[13] = AUC (0 to infinity) in Sprague-Dawley rat at 3 mg/kg, po measured upto 24 hrs by LC-MS/MS analysis; format: ADME, organism-based; details: in vivo
cells = details: Mus musculus, BaF3/TEL-AXL, 72 h
Description: Antiproliferative activity against mouse BaF3/TEL-AXL cells assessed as inhibition of cell proliferation incubated for 72 hrs by CCK-8 assay

MKN-45 = experiment: cells; details: Homo sapiens, MKN-45, 72 h
Description: Antiproliferative activity against human MKN-45 cells assessed as inhibition of cell proliferation incubated for 72 hrs by CCK-8 assay

[14] = Half life in Sprague-Dawley rat at 3 mg/kg, po measured upto 24 hrs by LC-MS/MS analysis; format: ADME, organism-based; details: in vivo
[15] = target: T2, Tyrosine-protein kinase receptor UFO (Homo sapiens, UniProt P30530)
T2 sequence (P30530 whole entry): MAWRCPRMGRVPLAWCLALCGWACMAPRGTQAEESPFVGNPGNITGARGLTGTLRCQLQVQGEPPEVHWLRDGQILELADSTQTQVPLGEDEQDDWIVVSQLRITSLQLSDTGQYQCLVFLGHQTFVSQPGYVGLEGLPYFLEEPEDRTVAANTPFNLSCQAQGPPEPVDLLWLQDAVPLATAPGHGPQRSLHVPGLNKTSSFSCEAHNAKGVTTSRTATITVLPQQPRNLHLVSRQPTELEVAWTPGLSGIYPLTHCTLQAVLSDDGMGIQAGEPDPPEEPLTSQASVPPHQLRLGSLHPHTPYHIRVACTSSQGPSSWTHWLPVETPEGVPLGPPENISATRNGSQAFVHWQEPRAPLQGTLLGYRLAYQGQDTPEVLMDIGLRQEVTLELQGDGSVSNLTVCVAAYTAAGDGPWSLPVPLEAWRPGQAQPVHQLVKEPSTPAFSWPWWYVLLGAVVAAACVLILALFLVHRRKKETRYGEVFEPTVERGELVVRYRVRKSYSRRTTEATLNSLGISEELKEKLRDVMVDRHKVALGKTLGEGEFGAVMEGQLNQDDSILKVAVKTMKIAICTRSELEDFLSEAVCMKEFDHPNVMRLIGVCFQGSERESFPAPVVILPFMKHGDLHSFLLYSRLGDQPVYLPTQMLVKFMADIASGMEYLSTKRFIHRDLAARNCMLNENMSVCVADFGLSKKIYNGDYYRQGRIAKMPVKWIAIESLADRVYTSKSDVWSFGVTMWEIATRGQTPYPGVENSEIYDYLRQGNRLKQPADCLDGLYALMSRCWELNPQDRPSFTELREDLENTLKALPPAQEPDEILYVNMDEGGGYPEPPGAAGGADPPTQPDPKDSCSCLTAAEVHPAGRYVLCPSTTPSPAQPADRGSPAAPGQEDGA
Description: Inhibition of AXL (unknown origin) by ELISA analysis

Chain of RAC-alpha serine/threonine-protein kinase (Mus musculus) (P31750 whole entry): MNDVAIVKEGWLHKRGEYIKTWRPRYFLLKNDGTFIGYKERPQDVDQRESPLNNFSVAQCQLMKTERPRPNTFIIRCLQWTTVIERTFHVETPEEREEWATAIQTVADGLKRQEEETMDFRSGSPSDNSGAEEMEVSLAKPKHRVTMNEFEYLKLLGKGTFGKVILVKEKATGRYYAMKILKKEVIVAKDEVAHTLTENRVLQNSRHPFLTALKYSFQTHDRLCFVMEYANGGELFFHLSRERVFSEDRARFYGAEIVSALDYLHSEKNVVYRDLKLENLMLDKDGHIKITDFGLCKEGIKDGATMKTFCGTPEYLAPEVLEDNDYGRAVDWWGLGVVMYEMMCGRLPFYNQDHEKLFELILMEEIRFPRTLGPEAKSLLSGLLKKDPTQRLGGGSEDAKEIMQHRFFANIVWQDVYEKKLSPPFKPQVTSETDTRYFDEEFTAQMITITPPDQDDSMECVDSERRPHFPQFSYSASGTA

| SMILES | inhibition in vivo at 50 mg/kg [1] [%] | Activity [2] | Cmax [3] [ng/mL] | Tmax [4] [h] | inhibition in vivo at 100 mg/kg [5] [%] | inhibition in vivo at 25 mg/kg [6] [%] | inhibition [7] | inhibition [8] | Activity (BaF3/TEL-AXL) | remaining at 1 h [9] [%] | Activity [10] | MRT inf [11] [h] | half-life [12] [h] | AUC(0-inf) [13] [ng·h/mL] | IC50 (cells) [nM] | IC50 (MKN-45) [nM] | half-life [14] [h] | IC50 [15] [nM] |
| --- | --- | --- | --- | --- | --- | --- | --- | --- | --- | --- | --- | --- | --- | --- | --- | --- | --- | --- |
| Nc1nc(Nc2ccc3c(c2)CC[C@@H](N2CCCC2)CC3)nn1-c1cc2c(nn1)-c1ccccc1CCC2 [BEMCENTINIB] | 107 | Non-Toxic | – | – | – | – | – | – | – | – | – | – | – | – | – | – | – | – |
| CC(C)n1cc(-c2ccc(F)cc2)c(=O)c2c(Nc3ccc(-c4cc(-c5cnn(C)c5)cnc4N)c(F)c3)nccc21 | 104 | – | 2910 | 2 | 105 | 89.8 | Dose-Dependent Effect | Dose-Dependent Effect | Active | 76.3 | Non-Toxic | 16.5 | 2.57 | 59800 | < 1 | > 100 | 10.1 | – |
| CC(C)n1cc(-c2ccc(F)cc2)c(=O)c2c(Nc3ccc(-c4cn(C)c5ncnc(N)c45)c(F)c3)nccc21 | – | – | 187 | 1.5 | – | – | – | – | – | 47 | – | 5.96 | 0.765 | 1300 | 1 | > 100 | 3.82 | – |
| CC(C)n1cc(C(=O)Nc2cc(F)c(-c3c[nH]c4ncnc(N)c34)cc2F)c(=O)c(-c2ccc(F)cc2)c1 | – | – | – | – | – | – | – | – | – | – | – | – | – | – | – | – | – | < 0.2 |
